# Counter-ions that a name gives are not always drawn.
# Columns and labels:
# human EP1 receptor = target: T1, human EP1 receptor (Homo sapiens, UniProt P34995); experiment: human EP1 calcium mobilisation assay; assay type: cell-based; settings: for Ki: human EP1, CHO-K1 cells, antagonism of PGE2, averages of a number of experiments, read-out: functional pKi value (converted)
# T1 construct: expressed in transfected cells; host or cells: CHO-K1
# T1 sequence (P34995 1-402): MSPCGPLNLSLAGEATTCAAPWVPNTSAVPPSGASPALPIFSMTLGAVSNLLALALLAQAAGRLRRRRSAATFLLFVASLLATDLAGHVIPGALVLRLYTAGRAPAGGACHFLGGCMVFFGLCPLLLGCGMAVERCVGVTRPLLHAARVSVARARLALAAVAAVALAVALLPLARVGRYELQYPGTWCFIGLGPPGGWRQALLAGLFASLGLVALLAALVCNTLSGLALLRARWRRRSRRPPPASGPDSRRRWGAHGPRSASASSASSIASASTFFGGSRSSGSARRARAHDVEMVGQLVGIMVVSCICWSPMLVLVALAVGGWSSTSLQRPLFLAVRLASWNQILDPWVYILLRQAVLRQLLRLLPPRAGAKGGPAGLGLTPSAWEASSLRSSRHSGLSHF
# Description: (§1) Briefly, the antagonist properties of compounds are assessed by their ability to inhibit the mobilisation of intracellular calcium ([Ca^2+]i) in response to activation of EP1 or EP3 receptors by the natural agonist hormone prostaglandin E2 (PGE2). Increasing concentrations of antagonist reduce the amount of calcium that a given concentration of PGE2 can mobilise. The net effect is to displace the PGE2 concentration-effect curve to higher concentrations of PGE2. The amount of calcium produced is assessed using a calcium-sensitive fluorescent dye such as Fluo-4, AM and a suitable instrument such as a Fluorimetric Imaging Plate Reader (FLIPR). Increasing amounts of [Ca^2+]i produced by receptor activation increase the amount of fluorescence produced by the dye and give rise to an increasing signal. The signal may be detected using the FLIPR instrument and the data generated may be analysed with suitable curve-fitting software.
# (§2) The human EP1 or EP3 calcium mobilisation assay (hereafter referred to as ‘the calcium assay’) utilises Chinese hamster ovary-K1 (CHO-K1) cells into which a stable (pCIN; BioTechniques 20 (1996): 102-110) vector containing either EP1 or EP3 cDNA has previously been transfected. Cells are cultured in suitable flasks containing culture medium such as DMEM:F-12 supplemented with 10% v/v foetal calf serum, 2 mM L-glutamine, 0.25 mg/ml geneticin, 100 μM flurbiprofen and 10 μg/ml puromycin.
# (§3) For assay, cells are harvested using a proprietary reagent that dislodges cells such as Versene. Cells are re-suspended in a suitable quantity of fresh culture media for introduction into a 384-well plate. Following incubation for 24 hours at 37° C. the culture media is replaced with a medium containing Fluo-4 and the detergent pluronic acid, and a further incubation takes place. Concentrations of compounds are then added to the plate in order to construct concentration-effect curves. This may be performed on the FLIPR in order to assess the agonist properties of the compounds. Concentrations of PGE2 are then added to the plate in order to assess the antagonist properties of the compounds.
# (§4) The data so generated may be analysed by means of a computerised curve-fitting routine. The concentration of compound that elicits a half-maximal inhibition of the calcium mobilisation induced by PGE2 (pIC50) may then be estimated.
# human EP3 receptor = target: T2, human EP3 receptor (Homo sapiens, UniProt P43115); experiment: human EP3 calcium mobilisation assay; assay type: cell-based; settings: human EP3, CHO-K1 cells, antagonism of PGE2; averages of a number of experiments; read-out: functional pKi value (converted)
# T2 construct: expressed in transfected cells; host or cells: CHO-K1
# T2 sequence (P43115 1-390): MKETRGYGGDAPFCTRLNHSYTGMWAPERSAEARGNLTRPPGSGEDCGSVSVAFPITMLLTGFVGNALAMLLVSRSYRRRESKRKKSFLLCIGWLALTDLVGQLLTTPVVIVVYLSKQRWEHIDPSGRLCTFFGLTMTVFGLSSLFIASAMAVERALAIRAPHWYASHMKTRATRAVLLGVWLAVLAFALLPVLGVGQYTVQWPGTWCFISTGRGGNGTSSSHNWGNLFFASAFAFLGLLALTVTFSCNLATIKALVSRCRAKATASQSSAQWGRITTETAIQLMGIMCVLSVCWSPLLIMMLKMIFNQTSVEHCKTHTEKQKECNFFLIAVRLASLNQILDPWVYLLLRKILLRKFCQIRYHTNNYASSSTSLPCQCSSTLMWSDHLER
# Description: as §1, §2, §3, §4
# EP1 receptor [1] = target: T3, EP1 receptor (Rattus norvegicus, UniProt P70597); set-up: host or cells: rat, in vivo; settings: chronic constriction injury; cited from earlier work
# T3 sequence (P70597 1-405): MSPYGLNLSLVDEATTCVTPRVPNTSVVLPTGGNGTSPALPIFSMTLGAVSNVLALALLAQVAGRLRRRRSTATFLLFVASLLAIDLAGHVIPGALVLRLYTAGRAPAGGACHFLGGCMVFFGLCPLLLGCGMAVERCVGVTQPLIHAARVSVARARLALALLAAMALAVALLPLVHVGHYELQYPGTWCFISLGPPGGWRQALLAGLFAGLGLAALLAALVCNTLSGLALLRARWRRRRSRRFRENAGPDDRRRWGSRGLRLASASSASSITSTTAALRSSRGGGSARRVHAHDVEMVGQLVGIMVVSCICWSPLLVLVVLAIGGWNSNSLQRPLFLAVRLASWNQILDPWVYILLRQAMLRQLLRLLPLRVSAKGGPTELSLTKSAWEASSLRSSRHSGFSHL
# EP1 receptor [2] = target: T3, EP1 receptor; set-up: host or cells: rodent, in vivo; settings: rodent, post-operative pain; cited from earlier work
# [3] = target: T4, human prostanoid EP1 receptor (Homo sapiens, UniProt P34995); experiment: Binding assay for the human prostanoid EP1 receptor (competition with [3H]-PGE2); settings: [3H]-PGE2 competition, human EP1, CHO-K1 membranes; averages of a number of experiments; read-out: pIC50 value (converted)
# T4 construct: expressed in transfected cells; host or cells: CHO-K1 (membrane fraction)
# T4 sequence (P34995 1-402): T1 sequence (P34995 1-402)
# Description: Competition assay using [^3H]-PGE2.
# Compound potencies are determined using a radioligand binding assay. In this assay compound potencies are determined from their ability to compete with tritiated prostaglandin E2 ([^3H]-PGE2) for binding to the human EP1 receptor.
# This assay utilises Chinese hamster ovary-K1 (CHO-K1) cells into which a stable vector containing the EP1 cDNA has previously been transfected. Cells are cultured in suitable flasks containing culture medium such as DMEM:F-12 supplemented with 10% v/v foetal calf serum, 2 mM L-glutamine, 0.25 mg/ml geneticin, 10 μg/ml puromycin and 10 μM indomethacin.
# Cells are detached from the culture flasks by incubation in calcium and magnesium free phosphate buffered saline containing 1 mM disodium ethylenediaminetetraacetic acid (Na2EDTA) and 10 μM indomethacin for 5 min. The cells are isolated by centrifugation at 250×g for 5mins and suspended in an ice cold buffer such as 50 mM Tris, 1 mM Na2EDTA, 140 mM NaCl, 10 μM indomethacin (pH 7.4). The cells are homogenised using a Polytron tissue disrupter (2×10 s burst at full setting), centrifuged at 48,000×g for 20mins and the pellet containing the membrane fraction is washed (optional) three times by suspension and centrifugation at 48,000×g for 20mins. The final membrane pellet is suspended in an assay buffer such as 10 mM 2-[N-morpholino]ethanesulphonic acid, 1 mM Na2EDTA, 10 mM MgCl2 (pH 6). Aliquots are frozen at −80° C. until required.
# For the binding assay the cell membranes, competing compounds and [^3H]-PGE2 (3 nM final assay concentration) are incubated in a final volume of 100 μl for 30 min at 30° C. All reagents are prepared in assay buffer. Reactions are terminated by rapid vacuum filtration over GF/B filters using a Brandell cell harvester. The filters are washed with ice cold assay buffer, dried and the radioactivity retained on the filters is measured by liquid scintillation counting in Packard TopCount scintillation counter.
# The data are analysed using non linear curve fitting techniques to determine the concentration of compound producing 50% inhibition of specific binding (IC50).
"IC50 (human EP1 receptor; human EP1 calcium mobilisation assay, read-out: pIC50 values (converted)) [nM]",Ki (human EP3 receptor) [nM],Ki (human EP1 receptor) [nM],IC50 [3] [nM],Compound,hyperalgesia and allodynia (EP1 receptor [1]),mechanical hyperalgesia (EP1 receptor [2])
,≤ 3160,≤ 10000,,"CC(C)COc1ccc(Cl)cc1Cc1cccc(-c2nc3ccc(CN4CCCC4)cc3[nH]2)n1 [Example 49, 2-[6-({5-Chloro-2-[(2-methylpropyl)oxy]phenyl}methyl)-2-pyridinyl]-5-(1-pyrrolidinylmethyl)-1H-benzimidazole hydrochloride]",,
,≤ 3160,≤ 316,≤ 100,"CC(C)COc1ccc(Cl)cc1Cc1cccc(-c2nc3ncccc3[nH]2)n1 [Example 21, 2-[6-({5-Chloro-2-[(2-methylpropyl)oxy]phenyl}methyl)-2-pyridinyl]-1H-imidazo[4,5-b]pyridine hydrochloride]",,
,≤ 1000,≤ 316,,"CC(C)COc1ccc(Cl)cc1Cc1cccc(-c2nc3c(ccc4nn[nH]c43)[nH]2)n1 [Example 25, 7-[6-({5-Chloro-2-[(2-methylpropyl)oxy]phenyl}methyl)-2-pyridinyl]-1,6-dihydroimidazo[4,5-e][1,2,3]benzotriazolehydrochloride]",,
,≤ 3160,≤ 316,≤ 100,"CC(C)COc1ccc(Cl)cc1Cc1cccc(-c2nc3ccc(CN(C)C)cc3[nH]2)n1 [Example 51, ({2-[6-({5-Chloro-2-[(2-methylpropyl)oxy]phenyl}methyl)-2-pyridinyl]-1H-benzimidazol-5-yl}methyl)dimethylaminehydrochloride]",,
,≤ 1000,≤ 316,,"CC(C)COc1ccc(Cl)cc1Cc1cccc(-c2nc3cc4cnn(C)c4cc3[nH]2)n1 [Example 23, 6-[6-({5-Chloro-2-[(2-methylpropyl)oxy]phenyl}methyl)-2-pyridinyl]-1-methyl-1,5-dihydroimidazo[4,5-f]indazolehydrochloride]",,

# Further lines, the compound ahead of its results:
Compound,"IC50 (human EP1 receptor; human EP1 calcium mobilisation assay, read-out: pIC50 values (converted)) [nM]",Ki (human EP3 receptor) [nM],Ki (human EP1 receptor) [nM],IC50 [3] [nM],hyperalgesia and allodynia (EP1 receptor [1]),mechanical hyperalgesia (EP1 receptor [2])
"CC(C)(C)NC(=O)c1cccc(Cc2cc(Cl)ccc2OCc2ccccc2)n1 [Example 8, 6-({5-Chloro-2-[(phenylmethyl)oxy]phenyl}methyl)-N-(1,1-dimethylethyl)-2-pyridinecarboxamide]",> 10000,≤ 3160,,,,
Cc1cc(Cl)ccc1S(=O)(=O)NC[C@H]1C2CCC(CC2)[C@@H]1/C=C\CCCC(=O)O [ONO-8711],,,,,reduces hyperalgesia and allodynia,inhibits mechanical hyperalgesia
"O=C(Nc1cccc(Cc2cc(Cl)ccc2OCc2ccccc2)n1)C1CCOCC1 [Example 14, N-[6-({5-Chloro-2-[(phenylmethyl)oxy]phenyl}methyl)-2-pyridinyl]tetrahydro-2H-pyran-4-carboxamide]",,≤ 3160,≤ 316,,,
"Clc1ccc(OCc2ccccc2)c(Cc2cccc(-c3nc4cncnc4[nH]3)n2)c1 [Example 33, 8-[6-({5-Chloro-2-[(phenylmethyl)oxy]phenyl}methyl)-2-pyridinyl]-1H-purinehydrochloride]",,≤ 1000,≤ 316,≤ 100,,
"CC(C)NC(=O)c1cccc(Cc2cc(Cl)ccc2OCc2ccccc2)n1 [Example 9, 6-({5-Chloro-2-[(phenylmethyl)oxy]phenyl}methyl)-N-(1-methylethyl)-2-pyridinecarboxamide]",,≤ 1000,≤ 316,,,
"Clc1ccc(OCc2ccccc2)c(Cc2cccc(-c3ncc[nH]3)n2)c1 [Example 43, 2-({5-Chloro-2-[(phenylmethyl)oxy]phenyl}methyl)-6-(1H-imidazol-2-yl)pyridine Hydrochloride]",,≤ 1000,≤ 316,≤ 100,,
"Clc1ccc(OCc2ccccc2)c(Cc2cccc(-c3nc4cc5cn[nH]c5cc4[nH]3)n2)c1 [Example 39, 6-[6-({5-Chloro-2-[(phenylmethyl)oxy]phenyl}methyl)-2-pyridinyl]-1,5-dihydroimidazo[4,5-f]indazolehydrochloride]",,≤ 3160,≤ 316,≤ 100,,

# Reference: patent publication US20090099177A1, “PYRIDYL COMPOUNDS” (priority 2006, published 2009)
